What all share (type): cell-based, human
For assay [1], the system named is HTT. Put plainly: Splicing RT-qPCR assay, HTT mRNA canonical junction (CJ) and alternative junction (AJ). As to conditions: Homo sapiens; for AC50: increase in AJ mRNA. An outline of the steps: (§1)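 First, A673 cells adhered 24 h, while K562 cells were plated directly. Next, compounds were added as an 11-point 3-fold series from 10 uM for 24 h. Finally, lysates went to RT-qPCR, with 2^(−ΔΔCt) values converted to percentage response.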
A general note: Quantitative PCR measures a nucleic acid by following its amplification.

Assay [2] concerns SMN2. Put plainly: Splicing RT-qPCR panel, SMN2 canonical junction (CJ) mRNA. As to conditions: Homo sapiens, RT-qPCR panel, canonical junction mRNA; compound concentration having 50% response in CJ decrease; read-out: SMN2 IC50 (decrease in CJ mRNA levels). The procedure, abridged:
as §1

Assay [3] relates to Target C. Put plainly: Splicing RT-qPCR panel, Target C canonical junction (CJ) mRNA. As to conditions: Homo sapiens, RT-qPCR panel, canonical junction mRNA; compound concentration having 50% response in CJ decrease; read-out: Target C IC50 (decrease in CJ mRNA levels). An outline of the steps:
as §1

Assay [4] concerns Target C. In words: HiBiT protein abundance assay, Target C. The conditions noted are these: Homo sapiens, K562, 24 h, Table 13A, modified K562 cells. An outline of the steps: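 HiBiT knock-in K562-derived cells seeded at 10000/well and treated with 10-point 3-fold dilutions (top final 10 μM, ≤0.25% DMSO) for 24 h at 37 °C. Lytic HiBiT luminescence normalised to unmodified-cell and DMSO controls; IC50 from 4-parameter fit at 50% abundance.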

Assay [5] concerns HTT. In words: HiBiT protein abundance assay, HTT. The conditions noted are these: Homo sapiens, K562, 24 h, Table 13A, modified K562 cells. The procedure, abridged:
(§2)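 HiBiT-tagged endogenous targets in K562 cells treated 24 h at 37° C. with 10-point 3-fold dilutions (top 10 μM, DMSO ≤0.25%). Luminescence read after lytic LgBiT detection; response normalised to unmodified-cell and DMSO controls, IC50 interpolated at 50% from four-parameter logistic fit.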

The test system of assay [6] is MYB. Put plainly: HiBiT protein abundance assay, MYB. The conditions noted are these: Homo sapiens, K562, 24 h, Table 13A, modified K562 cells. An outline of the steps: as §2
Assay [7] concerns MYB. In words: Splicing RT-qPCR assay, MYB mRNA canonical junction (CJ) and alternative junction (AJ). As to conditions: Homo sapiens; for AC50: increase in AJ mRNA. The procedure, abridged:
as §1

[8] abbreviates: 24 h, decrease in CJ mRNA, A673 or K562 cells, 24 hours treatment, RT-qPCR, read-out: HTT CJ IC50.
The mark [9] stands for this setting: 24 h, A673 or K562 cells, 24 hours treatment, RT-qPCR.
Where [10] appears, read: RT-qPCR panel, canonical junction mRNA, compound concentration having 50% response in CJ decrease, read-out: HTT IC50 (decrease in CJ mRNA levels).
Where [11] appears, read: 24 h, decrease in CJ mRNA, A673 or K562 cells, 24 hours treatment, RT-qPCR, read-out: MYB CJ IC50.
The mark [12] stands for this setting: RT-qPCR panel, canonical junction mRNA, compound concentration having 50% response in CJ decrease, read-out: MYB IC50 (decrease in CJ mRNA levels).

We go through six compounds from patent US20240368163A1, “COMPOUNDS AND METHODS FOR MODULATING SPLICING” (REMIX THERAPEUTICS INC., priority 2021, published 2024).

On to `c1cnn(-c2ccc(-c3ccc(N4CCC(NC5CC5)C4)nn3)c3[nH]ncc23)c1` (stereo not shown) [Compound 347, N-cyclopropyl-1-{6-[4-(pyrazol-1-yl)-1H-indazol-7-yl]pyridazin-3-yl}pyrrolidin-3-amine], for which the IC50 in assay [1] (setting [8]) is above 10000 nM; in assay [1] (setting [10]) it was above 10000 nM; in assay [2] it was 1000 to 10000 nM; in assay [3] it was above 10000 nM; in assay [4] it was above 10000 nM; in assay [5], 1000 to 10000 nM. Further, the IC50 in assay [6] was 1000 to 10000 nM; in assay [7] (setting [11]), above 10000 nM; in assay [7] (setting [12]), above 10000 nM. The AC50 in assay [1] (setting [9]) and in assay [7] (setting [9]) was above 10000 nM throughout.
As for `Cc1cc(-c2ccc(-c3ccc(O[C@@H]4C[C@H]5CC[C@@H](C4)N5)nn3)c3scnc23)ccn1` [Compound 349], the IC50 in assay [1] (setting [8]) is 1000 to 10000 nM; in assay [1] (setting [10]), 1000 to 10000 nM; in assay [2], below 100 nM; in assay [3], 1000 to 10000 nM; in assay [4], 1000 to 10000 nM; in assay [5], 100 to 1000 nM. The IC50 was 100 to 1000 nM in assay [6], 1000 to 10000 nM in assay [7] (setting [11]) and 1000 to 10000 nM in assay [7] (setting [12]). Moreover, the AC50 in assay [1] (setting [9]) is 1000 to 10000 nM; in assay [7] (setting [9]) it was above 10000 nM.
Turning to `Cl.Fc1cc(-c2ccc(NC3CCNCC3)nn2)c2[nH]ncc2c1-c1cn[nH]c1` [Compound 350, 6-[5-fluoro-4-(1H-pyrazol-4-yl)-1H-indazol-7-yl]-N-(piperidin-4-yl)pyridazin-3-amine hydrochloride], the 50% inhibitory concentration (IC50) in assay [1] (setting [8]), in assay [1] (setting [10]), in assay [2], in assay [3], in assay [4] and in assay [5] was above 10000 nM each time. The IC50 in assay [6] was 1000 to 10000 nM; in assay [7] (setting [11]), above 10000 nM; in assay [7] (setting [12]), above 10000 nM. The AC50 in assay [1] (setting [9]) and in assay [7] (setting [9]) was above 10000 nM throughout.
For `CN(c1ccc(-c2cc(F)c(-c3cn[nH]c3)c3cn[nH]c23)nn1)[C@@H]1C[C@H]2CC[C@@H](C1)N2` [Compound 351], the AC50 in assay [1] (setting [9]) is below 100 nM; in assay [7] (setting [9]), 100 to 1000 nM. Further, the IC50 in assay [1] (setting [10]) is below 100 nM; in assay [2] it was below 100 nM; in assay [3], 100 to 1000 nM; in assay [4], 100 to 1000 nM; in assay [5] it was below 100 nM; in assay [6], 100 to 1000 nM. For the same compound, the IC50 in assay [7] (setting [11]) and in assay [7] (setting [12]) was 100 to 1000 nM in each case.
For the compound `c1nc2c(-c3cn[nH]c3)ccc(-c3ccc(N[C@H]4C[C@H]5COC[C@@H](C4)N5)nn3)c2s1` [Compound 353], the IC50 in assay [1] (setting [8]) is above 10000 nM; in assay [1] (setting [10]) it was above 10000 nM; in assay [2], 1000 to 10000 nM; in assay [3] it was 1000 to 10000 nM; in assay [4], above 10000 nM; in assay [5], 1000 to 10000 nM. Also, the IC50 in assay [6], in assay [7] (setting [11]) and in assay [7] (setting [12]) was 1000 to 10000 nM each time. For the same compound, the concentration at half-maximal activity (AC50) in assay [1] (setting [9]) is 1000 to 10000 nM; in assay [7] (setting [9]), above 10000 nM.
`c1nc2c(-c3cn[nH]c3)ccc(-c3ccc(N[C@@H]4C[C@H]5COC[C@@H](C4)N5)nn3)c2s1` [Compound 354, (endo)-N-{6-[4-(1H-pyrazol-4-yl)-1,3-benzothiazol-7-yl]pyridazin-3-yl}-3-oxa-9-azabicyclo[3.3.1]nonan-7-amine]: the AC50 in assay [1] (setting [9]) fell in the range of 100 to 1000 nM; in assay [7] (setting [9]), 1000 to 10000 nM. Also, the half-maximal inhibitory concentration (IC50) in assay [1] (setting [10]) is below 100 nM; in assay [2], below 100 nM; in assay [3], 100 to 1000 nM; in assay [4], 100 to 1000 nM; in assay [5], 100 to 1000 nM; in assay [6] it was 100 to 1000 nM. Also, the IC50 in assay [7] (setting [11]) and in assay [7] (setting [12]) was 100 to 1000 nM each time.

For orientation: IC50 means the concentration that inhibits the measured activity by half. Usually AC50 stands for the concentration giving half of the maximal activity seen.
